From US6133291A, “N-(imidazolylalkyl)substituted cyclic amines as histamine-H3 agonists or antagonists” (Schering Corporation, priority 1998, dated 2000)

target: T1, H3 receptors (Cavia porcellus, UniProt Q9JI35); assay: pA2 at H3 receptor (guinea pig neuronal ileum contraction assay); format: biochemical; settings: not given
Description: pA2=-logEC50, as defined by J. Hey, Eur. J. Pharmacol., (1995), Vol. 294, 329.

T1 sequence (Q9JI35 whole entry): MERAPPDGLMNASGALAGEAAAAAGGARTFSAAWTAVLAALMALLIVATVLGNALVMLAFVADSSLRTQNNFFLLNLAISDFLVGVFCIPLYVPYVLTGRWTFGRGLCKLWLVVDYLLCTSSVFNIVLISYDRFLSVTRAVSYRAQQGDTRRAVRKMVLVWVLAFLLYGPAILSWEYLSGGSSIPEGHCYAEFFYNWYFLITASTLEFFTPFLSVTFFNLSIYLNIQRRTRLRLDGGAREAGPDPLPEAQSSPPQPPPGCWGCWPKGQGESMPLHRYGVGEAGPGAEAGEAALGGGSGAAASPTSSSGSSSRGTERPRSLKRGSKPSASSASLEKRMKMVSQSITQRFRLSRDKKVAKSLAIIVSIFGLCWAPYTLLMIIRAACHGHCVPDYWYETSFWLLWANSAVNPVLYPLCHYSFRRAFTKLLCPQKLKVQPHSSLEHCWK

Structure (SMILES)	Kb
OC1(c2ccc(Cl)cc2)CCN(CCCCc2c[nH]cn2)CC1 [compound 26]	10 nM
OC1(c2ccc(Cl)cc2)CCN(CCCCCc2c[nH]cn2)CC1 [compound 27]	7.94 nM
OC1(c2ccc(Cl)cc2)CCN(CCCc2c[nH]cn2)CC1 [compound 25]	12.6 nM
Fc1ccc(C2=CCN(CCCCc3c[nH]cn3)CC2)cc1 [compound 31]	12.6 nM

same assay, conditions: HCl salt; pA2=-logEC50 as defined by J. Hey

Structure (SMILES)	pA2
OCCN1CCC(CCCC2CCN(CCCCc3c[nH]cn3)CC2)CC1 [compound 30]	7.7
OCCN1CCC(CCCC2CCN(CCCc3c[nH]cn3)CC2)CC1 [compound 29]	7.1

same assay, conditions: HCl salt; pA2=-logEC50 as defined by J. Hey; read-out: pA2 (converted)

Structure (SMILES)	Kb
O=C(NCc1ccc(Cl)cc1)C1CCN(CCCc2c[nH]cn2)CC1 [No. 12]	10 nM
c1nc(CCCCN2CCC(N3CCCCC3)CC2)c[nH]1 [compound 24]	631 nM
FC(F)(F)Oc1ccc(CNC2CCN(CCCCc3c[nH]cn3)CC2)cc1 [compound 21]	7.94 nM
O=C(Nc1cccc(OC(F)(F)F)c1)C1CCN(CCCc2c[nH]cn2)CC1 [compound 11]	0.631 nM
Fc1ccc(OCC2CCN(CCCCc3c[nH]cn3)CC2)cc1 [compound 34]	20 nM
CCCCOc1ccc(NC(=O)C2CCN(CCCc3c[nH]cn3)CC2)cc1 [compound 14]	1 nM
O=C(Nc1ccc(Cl)c(Cl)c1)C1CCN(CCCCc2c[nH]cn2)CC1 [No. 8]	158 nM
O=C(NCc1ccc(OC(F)(F)F)cc1)C1CCN(CCCc2c[nH]cn2)CC1 [compound 13]	31.6 nM
O=C(Nc1ccc(OC(F)(F)F)cc1)C1CCN(CCCCc2c[nH]cn2)CC1 [No. 2]	0.501 nM
O=C(Nc1cccc(Cl)c1)C1CCN(CCCCc2c[nH]cn2)CC1 [compound 9]	1.26 nM
O=C(Nc1cccc(C(F)(F)F)c1)C1CCN(CCCCc2c[nH]cn2)CC1 [No. 10]	0.794 nM
O=C(c1ccc(F)cc1)C1CCN(CCCc2c[nH]cn2)CC1 [compound 32]	20 nM
O=C(c1ccc(F)cc1)C1CCN(CCCCc2c[nH]cn2)CC1 [compound 33]	6.31 nM
CCCN(CC1CCN(CCCCc2c[nH]cn2)CC1)S(=O)(=O)c1ccc(OC(F)(F)F)cc1 [compound 6]	316 nM
CC1(C(=O)Nc2ccc(OC(F)(F)F)cc2)CCN(CCCCc2c[nH]cn2)CC1 [No. 19]	39.8 nM

system: rat; assay: not given; settings: cited from earlier work

Structure (SMILES)	reversal learning	short-term memory
S=C(NC1CCCCC1)N1CCC(c2cnc[nH]2)CC1 [thioperamide]	improve short-term memory and reversal learning	improve short-term memory

system: mice; assay: not given; settings: electrically induced convulsions; cited from earlier work

Structure (SMILES)	duration of each phase of convulsion	electroconvulsive threshold
S=C(NC1CCCCC1)N1CCC(c2cnc[nH]2)CC1 [thioperamide]	decreased the duration of each phase of convulsion	raised the electroconvulsive threshold

system: histamine-H3 receptor; assay: not given; settings: cited from earlier work

Structure (SMILES)	H3 agonist/antagonist activity
N=C(N)SCCCc1c[nH]cn1 [S-[3-(4(5)-imidazolyl)propyl]isothiourea]	histamine-H3 antagonist

target: T1, H3 receptors; assay: H3-Receptor Binding Assay (guinea pig brain membranes, [3H]R-α-methylhistamine or [3H]Nα-methylhistamine); settings: not given

Structure (SMILES)	Ki
O=C(NCc1ccc(Cl)cc1)C1CCN(CCCc2c[nH]cn2)CC1 [No. 12]	29 nM
O=C(Nc1cccc(O)c1)C1CCN(CCCc2c[nH]cn2)CC1 [compound 16]	700 nM
c1nc(CCCCN2CCC(N3CCCCC3)CC2)c[nH]1 [compound 24]	100 nM
O=C(Nc1ccc(Cl)cc1)C1CCN(CCCCc2c[nH]cn2)CC1 [No. 7]	35 nM
FC(F)(F)Oc1ccc(CNC2CCN(CCCCc3c[nH]cn3)CC2)cc1 [compound 21]	13 nM
O=C(Nc1cccc(OC(F)(F)F)c1)C1CCN(CCCc2c[nH]cn2)CC1 [compound 11]	1 nM
Fc1ccc(OCC2CCN(CCCCc3c[nH]cn3)CC2)cc1 [compound 34]	10 nM
CCCCOc1ccc(NC(=O)C2CCN(CCCc3c[nH]cn3)CC2)cc1 [compound 14]	10 nM
OC1(c2ccc(Cl)cc2)CCN(CCCCc2c[nH]cn2)CC1 [compound 26]	6 nM
OC1(c2ccc(Cl)cc2)CCN(CCCCCc2c[nH]cn2)CC1 [compound 27]	5 nM
OC1(Cc2ccccc2)CCN(CCCc2c[nH]cn2)CC1 [compound 36]	660 nM
O=C(Nc1ccc(Cl)c(Cl)c1)C1CCN(CCCCc2c[nH]cn2)CC1 [No. 8]	27 nM
O=C(NCc1ccc(OC(F)(F)F)cc1)C1CCN(CCCc2c[nH]cn2)CC1 [compound 13]	24 nM
CCOC(=O)C1CCN(CCCCc2c[nH]cn2)CC1 [compound 1]	22 nM
O=C(Nc1ccc(OC(F)(F)F)cc1)C1CCN(CCCCc2c[nH]cn2)CC1 [No. 2]	2 nM
O=C(Nc1cccc(Cl)c1)C1CCN(CCCCc2c[nH]cn2)CC1 [compound 9]	5.5 nM
CCCNC(=O)C1CCN(CCCCc2c[nH]cn2)CC1 [compound 3]	53 nM

Structure (SMILES)	Ki
OC1(c2ccc(Cl)cc2)CCN(CCCc2c[nH]cn2)CC1 [compound 25]	6 nM
CCC(=O)C1(c2ccccc2)CCN(CCCc2c[nH]cn2)CC1 [compound 35]	500 nM
O=C(Nc1cccc(C(F)(F)F)c1)C1CCN(CCCCc2c[nH]cn2)CC1 [No. 10]	9 nM
CCCN(CC1CCN(CCCCc2c[nH]cn2)CC1)S(=O)(=O)c1ccc(Cl)cc1 [compound 5]	44 nM
O=C(NC1CCN(CCCc2c[nH]cn2)CC1)c1ccc(F)cc1 [No. 18]	52 nM
FC(F)(F)Oc1ccc(NCC2CCN(CCCCc3c[nH]cn3)CC2)cc1 [compound 22]	9 nM
Fc1ccc(C2=CCN(CCCCc3c[nH]cn3)CC2)cc1 [compound 31]	14 nM
O=C(NC1CCN(CCCc2c[nH]cn2)CC1)c1ccc(OC(F)(F)F)cc1 [No. 17]	23 nM
CC1(C(=O)Nc2ccc(OC(F)(F)F)cc2)CCCN(CCCCc2c[nH]cn2)C1 (stereo not shown) [No. 20]	170 nM
OC1(c2cccc(C(F)(F)F)c2)CCN(CCCCc2c[nH]cn2)CC1 [compound 28]	60 nM
O=C(c1ccc(F)cc1)C1CCN(CCCc2c[nH]cn2)CC1 [compound 32]	6 nM
CCCNCC1CCN(CCCCc2c[nH]cn2)CC1 [No. 4]	200 nM
O=C(c1ccc(F)cc1)C1CCN(CCCCc2c[nH]cn2)CC1 [compound 33]	3 nM
CCCN(CC1CCN(CCCCc2c[nH]cn2)CC1)S(=O)(=O)c1ccc(OC(F)(F)F)cc1 [compound 6]	24 nM
CC1(C(=O)Nc2ccc(OC(F)(F)F)cc2)CCN(CCCCc2c[nH]cn2)CC1 [No. 19]	180 nM
O=C(Nc1ccc(O)cc1)C1CCN(CCCc2c[nH]cn2)CC1 [compound 15]	100 nM

same assay, conditions: HCl salt; guinea pig brain membranes, pH 7.5, 30° C., 30 min

Structure (SMILES)	Ki
OCCN1CCC(CCCC2CCN(CCCCc3c[nH]cn3)CC2)CC1 [compound 30]	7 nM
OCCN1CCC(CCCC2CCN(CCCc3c[nH]cn3)CC2)CC1 [compound 29]	12 nM
